Where “and” joins values, the source holds several entries; their conditions need not be identical. Equal values may be shown once.
Columns and labels:
Renin receptor (ATP6IP2) = Renin receptor (ATP6IP2) (Homo sapiens, UniProt O75787); assay: Surface plasmon resonance (Biacore); assay type: binding; settings: ATP6IP2, SPR
K-562 = assay: NCI 60 cytotoxicity screening; assay type: cell-based; settings: Homo sapiens, K562; K-562, Leukemia
TRAP1 = target: T1, TRAP1 (Homo sapiens, UniProt Q12931); assay: Surface plasmon resonance (Biacore); assay type: binding; set-up: purchased Abcam ab123775; settings: TRAP1, SPR
T1 sequence (Q12931 60-704): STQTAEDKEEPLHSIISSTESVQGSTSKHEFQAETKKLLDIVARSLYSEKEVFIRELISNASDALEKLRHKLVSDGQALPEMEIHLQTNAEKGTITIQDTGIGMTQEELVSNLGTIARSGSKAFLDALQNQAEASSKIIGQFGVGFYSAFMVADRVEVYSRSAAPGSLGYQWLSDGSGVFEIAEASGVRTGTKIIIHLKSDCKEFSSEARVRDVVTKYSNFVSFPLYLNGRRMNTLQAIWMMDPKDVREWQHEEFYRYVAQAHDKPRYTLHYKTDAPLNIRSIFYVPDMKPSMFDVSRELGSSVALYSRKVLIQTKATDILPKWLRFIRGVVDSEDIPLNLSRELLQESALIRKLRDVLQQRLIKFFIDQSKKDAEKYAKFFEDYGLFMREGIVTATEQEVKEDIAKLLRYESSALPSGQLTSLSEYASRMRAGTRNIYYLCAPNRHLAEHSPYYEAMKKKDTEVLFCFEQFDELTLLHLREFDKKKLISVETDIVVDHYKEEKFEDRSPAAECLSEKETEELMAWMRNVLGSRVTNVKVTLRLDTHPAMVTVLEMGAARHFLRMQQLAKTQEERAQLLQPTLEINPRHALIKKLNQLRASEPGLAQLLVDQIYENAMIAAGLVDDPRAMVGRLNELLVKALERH
Procedure: To confirm the molecular binding of the targeted protein, Surface Plasmon Resonance (SPR) was performed with a Biacore 3000. TRAP1 recombinant protein (Abcam, ab123775) or human Hsp90 recombinant protein (HSP90AB1, Abcam, ab131923) were immobilized on a CM5 sensor chip surface using the amine coupling method according to the manufacturer’s instruction (Biacore, GE Healthcare). CVM-1125 was dissolved in sodium carbonate buffer (pH 9) and then diluted in HBS-EDTA-P20 buffer to desired concentrations (five serial dilutions from 1 × 10^−5 to 1 × 10^−8 M) and injected at flow 30 μL/min with KINJET 60/180 %pos, analyte position, volume, and dissociation time. Specific binding was calculated using BiaEval 3 software.

SF-295 = assay: NCI 60 cytotoxicity screening; assay type: cell-based; settings: Homo sapiens; SF-295, CNS
COLO 205 = assay: NCI 60 cytotoxicity screening; assay type: cell-based; settings: Homo sapiens; COLO 205, Colon
A498 = assay: NCI 60 cytotoxicity screening; assay type: cell-based; settings: Homo sapiens; A498, Renal
SK-MEL-5 = assay: NCI 60 cytotoxicity screening; assay type: cell-based; settings: Homo sapiens; SK-MEL-5, Melanoma
RPMI-8226 = assay: NCI 60 cytotoxicity screening; assay type: cell-based; settings: Homo sapiens; RPMI-8226, Leukemia
M14 = assay: NCI 60 cytotoxicity screening; assay type: cell-based; settings: Homo sapiens; M14, Melanoma
PC-3 = assay: NCI 60 cytotoxicity screening; assay type: cell-based; settings: Homo sapiens; PC-3, Prostate
Integrin beta-2 (CD18) = Integrin beta-2 (CD18) (Homo sapiens, UniProt P05107); assay: Surface plasmon resonance (Biacore); assay type: binding; settings: CD18, SPR
Integrin beta-2 (CD18), sequence (P05107 23-769): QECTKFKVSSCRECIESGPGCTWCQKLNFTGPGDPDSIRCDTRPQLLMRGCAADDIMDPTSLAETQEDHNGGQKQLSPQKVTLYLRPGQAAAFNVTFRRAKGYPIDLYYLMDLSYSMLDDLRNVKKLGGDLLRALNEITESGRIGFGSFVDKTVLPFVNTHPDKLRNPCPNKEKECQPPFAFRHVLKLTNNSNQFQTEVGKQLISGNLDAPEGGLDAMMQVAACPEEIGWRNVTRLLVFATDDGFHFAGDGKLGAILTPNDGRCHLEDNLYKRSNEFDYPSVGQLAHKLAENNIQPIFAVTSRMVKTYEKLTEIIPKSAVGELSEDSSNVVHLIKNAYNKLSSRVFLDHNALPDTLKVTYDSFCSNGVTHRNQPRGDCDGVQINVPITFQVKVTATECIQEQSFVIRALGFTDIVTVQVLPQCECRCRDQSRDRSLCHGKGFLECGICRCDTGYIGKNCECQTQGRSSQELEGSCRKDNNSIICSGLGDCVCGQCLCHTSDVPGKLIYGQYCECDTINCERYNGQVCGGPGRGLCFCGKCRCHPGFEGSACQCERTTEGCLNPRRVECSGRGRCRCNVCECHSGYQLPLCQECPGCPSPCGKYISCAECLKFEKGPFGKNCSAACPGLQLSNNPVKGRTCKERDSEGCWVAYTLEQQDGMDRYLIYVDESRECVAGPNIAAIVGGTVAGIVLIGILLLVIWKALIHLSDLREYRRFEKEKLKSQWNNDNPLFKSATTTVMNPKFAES

HCT-116 [1] = assay: Orthotopic HCT-116 mouse xenograft study, tumor volume; assay type: in vivo, BALB/c nude mice; settings: for tumor volume: day 43, vehicle 1,139 ± 580
Procedure: (§1) This animal study was contracted to CrownBio International R&D Center (Beijing, China) and was conducted under the approval of the Animal Ethics Committee at CrownBio in compliance with institutional and national guidelines. Seven-to eight-week-old female BALB/c nude mice were obtained from HFK Bio-Technology Co., Ltd. (Beijing, China). HCT-116 cells (2 × 10^6) were suspended in 20 μL PBS and then injected into the cecal wall. Treatment began on day 14 after cell inoculation when tumor reached ∼100 mm^3 measured in a satellite group of three mice. Treatment groups include vehicle control [PEG400:pH 10 carbonate buffer (40:60)], CVM-1118 at 20, 50, and 100 mg/kg given orally daily for 28 days, and CVM-1118 at 20 mg/kg given as intravenous injection once every 2 days for 7 times. Tumor volumes were measured at the end of in-life study on day 43. At the end of in vivo study, tumor tissues from selected groups were excised, collected, and subjected to standard immunohistochemical procedures to visualize the effect of CVM-1118 on VM network formation. Briefly, rabbit anti-human CD31 antibody (Abcam) was used as the primary Ab for the staining and the number of channels with CD31+/red blood cell (RBC)+, or CD31−/RBC+ were counted based on five light fields (×200) on the whole section of each sample in each group under microscope. Analysis of difference in tumor volume for drug-treated group against vehicle control group was conducted using one-way ANOVA followed by least significant difference (LSD) test (equal variance tested and confirmed by Brown-Forsythe test). Statistical analysis for VM formation was evaluated using Mann-Whitney test. All data were analyzed using GraphPad Prism 9.5.

[2] = Cell viability at VM-inhibiting concentration; assay type: cell-based; settings: human, human melanoma cells; 10 nM; read-out: percentage of viable cells
HCT-116 [3] = assay: In vivo vasculogenic mimicry (CD31−/RBC+ channels) in orthotopic HCT-116 xenograft; set-up: species or system BALB/c nude mice; settings: 100 mg/kg oral, excised colon tumor tissues, vs vehicle
Procedure: as §1, with “At the end of in vivo study, tumor tissues from selected groups were excised, collected, and subjected to standard immunohistochemical procedures to visualize the effect of CVM-1118 on VM network formation.” left out, “Analysis of difference in tumor volume for drug-treated group against vehicle control group was conducted using one-way ANOVA followed by least significant difference (LSD) test (equal variance tested and confirmed by Brown-Forsythe test).” left out

Renin receptor (ATP6IP2), sequence (O75787 17-350): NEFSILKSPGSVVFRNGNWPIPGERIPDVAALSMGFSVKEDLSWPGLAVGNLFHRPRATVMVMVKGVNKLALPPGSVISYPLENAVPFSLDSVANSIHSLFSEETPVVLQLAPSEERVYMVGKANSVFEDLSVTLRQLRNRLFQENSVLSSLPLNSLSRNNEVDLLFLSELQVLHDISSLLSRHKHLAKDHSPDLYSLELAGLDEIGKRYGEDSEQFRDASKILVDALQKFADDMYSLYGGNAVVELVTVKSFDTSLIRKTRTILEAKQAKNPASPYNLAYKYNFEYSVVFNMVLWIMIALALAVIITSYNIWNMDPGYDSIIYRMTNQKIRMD

SMILES: COc1ccc2[nH]c(-c3cccc(F)c3)cc(=O)c2c1O [CVM-1125]
- Dissociation (kd) (Renin receptor (ATP6IP2)): 0.021 s⁻¹
- kon (Renin receptor (ATP6IP2); read-out: Association (ka)): 122000 M⁻¹ s⁻¹
- Kd (Renin receptor (ATP6IP2); read-out: KD (kd/ka)): 0.173 µM
- GI50 (K-562): 0.0241 µM
- kon (TRAP1; read-out: Association (ka)): 30200 M⁻¹ s⁻¹
- Kd (TRAP1; read-out: KD (kd/ka)): 0.067 µM and 0.0668 µM
- GI50 (SF-295): 0.0255 µM
- GI50 (COLO 205): 0.0252 µM
- GI50 (A498): 0.0248 µM
- GI50 (SK-MEL-5): 0.0298 µM
- GI50 (RPMI-8226): 0.0331 µM
- GI50 (M14): 0.0189 µM
- GI50 (PC-3): 0.0326 µM
- Dissociation (kd) (Integrin beta-2 (CD18)): 1.08e-05 s⁻¹
- kon (Integrin beta-2 (CD18); read-out: Association (ka)): 14.4 M⁻¹ s⁻¹
- Kd (Integrin beta-2 (CD18); read-out: KD (kd/ka)): 0.748 µM

SMILES: COc1ccc2[nH]c(-c3cccc(F)c3)cc(=O)c2c1OP(=O)(O)O [CVM-1118]
- tumor volume (HCT-116 [1]; 20 mg/kg i.v. once every 2 days for 7 times): 670 ± 447 mm^3
- animals found dead prior to the termination of the study (HCT-116 [1]; 20 mg/kg i.v. treatment group): two mice
- tumor volume (HCT-116 [1]; 20 mg/kg orally daily for 28 days): 1,591 ± 747 mm^3
- animals found dead prior to the termination of the study (HCT-116 [1]; 50 mg/kg oral treatment group): One mouse
- tumor volume (HCT-116 [1]; 50 mg/kg orally daily for 28 days): 722 ± 595 mm^3
- tumor volume (HCT-116 [1]; 100 mg/kg orally daily for 28 days): 475 ± 415 mm^3
- viability at 0.01 µM [2]: > 90%
- reduction of VM network formation (VM channels) (HCT-116 [3]): 85%
